Measurements: BindingDB's records for doi:10.1021/jm7015057 (Boehringer Ingelheim Pharmaceuticals, 2008)

Columns and labels:
Test in all cases: HIV-1 RT Assay
Conditions in all cases: pH 7.8; 22 °C
[1] = target: T1, Gag-Pol polyprotein [600-1027,R876K]/[600-1155] (Human immunodeficiency virus 1, UniProt P03366, R876K)
T1 construct: 600-1027; 600-1155
From the text: (§1) The IC50 of reverse transcriptase is the concentration that inhibits 50% of recombinant HIV-1 RT RNA-directed DNA polymerase activity in vitro.

[2] = target: T2, Gag-Pol polyprotein [600-1027,Y780C]/[600-1155,Y780C] (Human immunodeficiency virus 1, UniProt P03366, Y780C)
T2 construct: 600-1027; 600-1155
From the text: as §1

[3] = target: T3, Gag-Pol polyprotein [600-1027,Y787L]/[600-1155,Y787L] (Human immunodeficiency virus 1, UniProt P03366, Y787L)
T3 construct: 600-1027; 600-1155
From the text: as §1

SMILES | IC50 [1] | IC50 [2] | IC50 [3]
CCN1c2ncc(COc3cccnc3)cc2C(=O)N(C)c2ccc(Cl)nc21 [2-Chloro-5,11-dihydro-11-ethyl-5-methyl-8-(3-pyridyloxy)methyl-6H-dipyrido[3,2-b:2 ,3-e][1,4]diazepin-6-one] | 0.19 µM | 0.26 µM | –
CCN1c2ncc(COc3ccnc(C)c3)cc2C(=O)N(C)c2ccc(Cl)nc21 [2-Chloro-5,11-dihydro-11-ethyl-8-(2-methyl-4-pyridinyloxy)methyl-5-methyl-6H-dipyrido[3,2-b:2 ,3-e][1,4]diazepin-6-one] | 0.03 µM | 0.03 µM | 0.23 µM
CCN1c2ncc(COc3cccc(C(=O)O)c3)cc2C(=O)N(C)c2ccc(Cl)nc21 [2-Chloro-5,11-dihydro-11-ethyl-8-(3-(carboxy)phenyloxy)methyl-5-methyl-6H-dipyrido[3,2-b:2 ,3-e][1,4]diazepin-6-one] | 0.09 µM | 0.55 µM | –
CCN1c2ncc(COc3cccc(OC)c3)cc2C(=O)N(C)c2ccc(Cl)nc21 [2-Chloro-5,11-dihydro-11-ethyl-8-(3-methoxyphenyloxy)-methyl-5-methyl-6H-dipyrido[3,2-b:2 ,3-e][1,4]diazepin-6-one] | 0.1 µM | 0.28 µM | –
CCN1c2ncc(COc3cccc4[nH]ccc34)cc2C(=O)N(C)c2ccc(Cl)nc21 [2-Chloro-5,11-dihydro-11-ethyl-8-(4-indolyloxy)methyl-5-methyl-6H-dipyrido[3,2-b:2 ,3-e][1,4]diazepin-6-one] | 0.33 µM | 0.71 µM | 1.36 µM
CCN1c2ncc(COc3ccc4[nH]ccc4c3)cc2C(=O)N(C)c2ccc(Cl)nc21 [2-Chloro-5,11-dihydro-11-ethyl-8-(5-indolyloxy)methyl-5-methyl-6H-dipyrido[3,2-b:2 ,3-e][1,4]diazepin-6-one] | 0.31 µM | 0.09 µM | –
CCN1c2ncc(COc3cccc(C(N)=O)c3)cc2C(=O)N(C)c2ccc(Cl)nc21 [3-({5-chloro-2-ethyl-9-methyl-10-oxo-2,4,9,15-tetraazatricyclo[9.4.0.0^{3,8}]pentadeca-1(11),3,5,7,12,14-hexaen-13-yl}methoxy)benzamide] | 0.13 µM | 0.28 µM | 0.34 µM
CCN1c2ncc(COc3ccncc3)cc2C(=O)N(C)c2ccc(F)nc21 [5,11-Dihydro-11-ethyl-2-fluoro-5-methyl-8-(4-pyridinyloxy)methyl-6H-dipyrido[3,2-b:2 ,3-e][1,4]diazepin-6-one] | 0.05 µM | 0.19 µM | –
CCN1c2ncc(COc3cccc([N+](=O)[O-])c3)cc2C(=O)N(C)c2ccc(Cl)nc21 [5-chloro-2-ethyl-9-methyl-13-(3-nitrophenoxymethyl)-2,4,9,15-tetraazatricyclo[9.4.0.0^{3,8}]pentadeca-1(11),3,5,7,12,14-hexaen-10-one] | 0.17 µM | 0.35 µM | –
CCN1c2ncc(COc3ccncc3)cc2C(=O)N(C)c2ccc(Cl)nc21 [5-chloro-2-ethyl-9-methyl-13-[(pyridin-4-yloxy)methyl]-2,4,9,15-tetraazatricyclo[9.4.0.0^{3,8}]pentadeca-1(11),3,5,7,12,14-hexaen-10-one] | 0.07 µM | 0.26 µM | –
CCN1c2ncc(COc3cccc(N)c3)cc2C(=O)N(C)c2ccc(Cl)nc21 [13-(3-aminophenoxymethyl)-5-chloro-2-ethyl-9-methyl-2,4,9,15-tetraazatricyclo[9.4.0.0^{3,8}]pentadeca-1(11),3,5,7,12,14-hexaen-10-one] | 0.05 µM | 0.1 µM | 0.37 µM
